From patent US20150166533A1, “NOVEL 1,3-DIHYDRO-2H-BENZIMIDAZOL-2-ONE DERIVATIVES SUBSTITUTED WITH BENZIMIDAZOLES AS RESPIRATORY SYNCYTIAL VIRUS ANTIVIRAL AGENTS” (Janssen R&D Ireland, priority 2012, published 2015)
pEC50: −log10 of the molar value. Read-outs that look alike come from different tables or passages of the source.

How the values were obtained:
rgRSV224 virus = experiment: Antiviral activity: inhibition of rgRSV224 replication (GFP expression) in HeLa cells; type: cell-based, respiratory syncytial virus (RSV); details: read-out: WT activity EC50
Method: Black 96-well clear-bottom microtiter plates (Corning, Amsterdam, The Netherlands) were filled in duplicate using a customized robot system with serial 4-fold dilutions of compound in a final volume of 50 μl culture medium [RPMI medium without phenol red, 10% FBS, 0.04% gentamycin (50 mg/ml) and 0.5% DMSO]. Then, 100 μl of a HeLa cell suspension (5×10^4 cells/ml) in culture medium was added to each well followed by the addition of 50 μl rgRSV224 (MOI=0.02) virus in culture medium using a multidrop dispenser (Thermo Scientific, Erembodegem, Belgium). rgRSV224 virus is an engineered virus that includes an additional GFP gene (Hallak et al, 2000) and was in-licensed from the NIH (Bethesda, Md., USA). Medium, virus- and mock-infected controls were included in each test. Cells were incubated at 37° C. in a 5% CO2 atmosphere. Three days post-virus exposure, viral replication was quantified by measuring GFP expression in the cells by a MSM laser microscope (Tibotec, Beerse, Belgium).
(§1) The EC50 was defined as the 50% inhibitory concentration for GFP expression. In parallel, compounds were incubated for three days in a set of white 96-well microtitier plates (Corning) and the cytotoxicity of compounds in HeLa cells was determined by measuring the ATP content of the cells using the ATPlite kit (PerkinElmer, Zaventem, Belgium) according to the manufacturer's instructions. The CC50 was defined as the 50% concentration for cytotoxicity.
Compounds were tested for RSV inhibitory activity. The results are depicted in the Table below (n.d. means not determined): […]

[1] = Cytotoxicity in HeLa cells, ATP content (ATPlite kit); type: cell-based; details: human, three days incubation, read-out: Tox CC50
Method: as §1

HeLa cells = experiment: as above; type: cell-based; details: three days incubation, read-out: Tox CC50
Method: as §1

[2] = human respiratory syncytial virus, HeLa, 72 h

Compound	pEC50 (rgRSV224 virus; [2])	melting point [°C]	CC50 at 3 days [1] [nM]	pEC50 (rgRSV224 virus; rgRSV224 (MOI=0.02) in HeLa cells, GFP expression three days post-virus exposure)	CC50 (HeLa cells) [nM]
O=c1n(Cc2nc3cc(Cl)ccc3n2CCCCF)c2cnccc2n1-c1nccs1 [Compound P8, 3-((5-chloro-1-(4-fluororbutyl)-1H-benzo[d]imidazol-2-yl)methyl)-1-(thiazol-2-yl)-1H-imidazo[4,5-c]pyridin-2(3H)-one]	9.72	206	> 100000	–	–
CC(C)(C)n1c(=O)n(Cc2nc3cc(Cl)ccc3n2CCCS(C)(=O)=O)c2cnccc21 [Compound P2, 1-tert-butyl-3-((5-chloro-1-(3-(methyl-sulfonyl)propyl)-1H-benzo[d]imidazol-2-yl)methyl)-1H-imidazo[4,5-c]pyridin-2(3H)-one]	9.41	197	> 100000	–	–
COc1ccc(-n2c(=O)n(Cc3nc4cc(Cl)ccc4n3CCCCF)c3cnccc32)cc1 [Compound P5, 3-((5-chloro-1-(4-fluorobutyl)-1H-benzo[d]imidazol-2-yl)methyl)-1-(4-methoxyphenyl)-1H-imidazo[4,5-c]pyridin-2(3H)-one]	> 10.00	167	> 100000	–	–
O=c1n(Cc2nc3cc(Cl)ccc3n2CCCCF)c2cnccc2n1-c1ccc(F)cc1 [Compound P4, 3-((5-chloro-1-(4-fluorobutyl)-1H-benzo[d]imidazol-2-yl)methyl)-1-(4-fluorophenyl)-1H-imidazo[4,5-c]pyridin-2(3H)-one]	9.52	180	> 100000	–	–
O=c1n(Cc2nc3cc(Cl)ccc3n2CCCCF)c2cnccc2n1-c1ccc(F)nc1 [Compound P6, 3-((5-chloro-1-(4-fluorobutyl)-1H-benzo[d]imidazol-2-yl)methyl)-1-(6-fluoropyridin-3-yl)-1H-imidazo[4,5-c]pyridin-2(3H)-one]	9.10	208	> 100000	–	–
CC(C)(C)OC(=O)N1CC(n2c(=O)n(Cc3nc4cc(Cl)ccc4n3CCCS(C)(=O)=O)c3ccccc32)C1 [Compound P1, tert-butyl-3-(3-((5-chloro-1-(3-(methyl-sulfonyl)propyl)-1H-bezon[d]imidazol-2-yl)methyl)-2-oxo-2,3-dihydro-1H-imidazo[d]imidazol-1-yl)azetidine-1-carboxylate]	9.17	–	> 100000	–	–
3-((5-chloro-1-(4-fluorobutyl)-1H-benzo[d]imidazol-2-yl)methyl)-1-(tetrahydrofuran-3-yl)-1H-imidazo[4,5-c]pyridin-2(3H)-one [Compound P10]	–	–	–	7.82	> 100000
CC1(n2c(=O)n(Cc3nc4cc(Cl)ccc4n3CCCS(C)(=O)=O)c3cnccc32)CC1 [Compound P3]	9.60	–	> 100000	–	–
O=c1n(Cc2nc3cc(Cl)ccc3n2CCCCF)c2cnccc2n1-c1ccc2ncccc2c1 [Compound P9, 3-((5-chloro-1-(4-fluororbutyl)-1H-benzo[d]imidazol-2-yl)methyl)-1-(quinolin-6-yl)-1H-imidazo[4,5-c]pyridin-2(3H)-one]	9.60	231	> 100000	–	–
COc1ccc(-n2c(=O)n(Cc3nc4cc(Cl)ccc4n3CCCS(C)(=O)=O)c3cnccc32)cc1 [Compound P7, 3-((5-chloro-1-(3-(methylsulfonyl)propyl)-1H-benzo[d]imidazol-2-yl)-methyl)-1-(4-methoxyphenyl)-1H-imidazo[4,5-c]pyridin-2(3H)-one]	10.30	250	> 100000	–	–
